± gives the standard deviation of the averaged measurements.
What was measured:
Assay in all cases: level (log10 ratio to DMSO vehicle control); higher = higher biomarker level / cell amount than vehicle control
Conditions in all cases: in DMSO
[1] = compound: FC(F)(F)C(F)(F)C(F)(F)CC1CO1 [1H,1H-Heptafluorobutyl epoxide]
Experimental: (§1)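 BioMAP Diversity Plus panel of 12 human primary cell co-culture systems (3C, 4H, LPS, SAg, BT, BF4T, BE3C, CASM3C, HDF3CGF, KF3CT, MyoF, Mphg). Compounds were added 1 h before stimulation and left for 24 h (MyoF 48 h; BT 72 h for soluble read-outs or 6 d for IgG). Biomarkers were read by ELISA, cytotoxicity by SRB, PBMC viability and proliferation by Alamar Blue. Each well value was divided by the mean of 8 DMSO control wells on the same plate and log10 transformed; duplicate blinded samples were tested at 4 concentrations.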

Octafluoroadipamide = compound: NC(=O)C(F)(F)C(F)(F)C(F)(F)C(F)(F)C(N)=O [Octafluoroadipamide]
Experimental: as §1

[2] = compound: O=S(=O)(Cl)C(F)(F)C(F)(F)C(F)(F)C(F)(F)C(F)(F)C(F)(F)C(F)(F)C(F)(F)F [Perfluoro-1-octanesulfonyl chloride]
Experimental: as §1

[3] = compound: O=S(=O)(O)C(F)(F)C(F)(F)C(F)(F)C(F)(F)C(F)(F)C(F)(F)C(F)(F)C(F)(F)C(F)(F)C(F)(F)F [Sodium perfluorodecanesulfonate]
Experimental: as §1

[4] = compound: O=S(=O)(O)CCC(F)(F)C(F)(F)C(F)(F)C(F)(F)C(F)(F)C(F)(F)F [6:2 Fluorotelomer sulfonic acid]
Experimental: as §1

Hexafluoroamylene glycol = compound: OCC(F)(F)C(F)(F)C(F)(F)CO [Hexafluoroamylene glycol]
Experimental: as §1

| Test System | level (log10) ([1]; 6700 nM) | level (log10) ([1]; 20000 nM) | level (log10) ([1]; 60000 nM) | level (log10) (Octafluoroadipamide; 6700 nM) | level (log10) (Octafluoroadipamide; 20000 nM) | level (log10) (Octafluoroadipamide; 60000 nM) | level (log10) ([2]; 6700 nM) | level (log10) ([2]; 20000 nM) | level (log10) ([2]; 60000 nM) | level (log10) ([3]; 1500 nM) | level (log10) ([3]; 4400 nM) | level (log10) ([3]; 13000 nM) | level (log10) ([3]; 40000 nM) | level (log10) ([4]; 6700 nM) | level (log10) ([4]; 20000 nM) | level (log10) ([4]; 60000 nM) | level (log10) (Hexafluoroamylene glycol; 6700 nM) | level (log10) (Hexafluoroamylene glycol; 20000 nM) | level (log10) (Hexafluoroamylene glycol; 60000 nM) |
| --- | --- | --- | --- | --- | --- | --- | --- | --- | --- | --- | --- | --- | --- | --- | --- | --- | --- | --- | --- |
| CASM3C:HLA-DR | -0.014 ± 0.0099 | -0.017 ± 0.0028 | -0.0165 ± 0.016 | -0.0105 ± 0.022 | -0.019 ± 0.0057 | 0.01 ± 0.018 | -0.022 ± 0.014 | -0.053 ± 0.017 | -0.04 ± 0.064 | 0.0555 ± 0.047 | 0.007 ± 0.024 | 0.0505 ± 0.036 | 0.0855 ± 0.0035 | 0.0245 ± 0.005 | -0.0115 ± 0.0035 | -0.001 ± 0.0085 | 0.014 ± 0.016 | 0.0095 ± 0.015 | -0.0015 ± 0.028 |
| CASM3C:IL-6 | -0.0235 ± 0.022 | -0.012 ± 0.0099 | 0.009 ± 0.047 | -0.0145 ± 0.0064 | -0.0185 ± 0.0035 | 0 ± 0.051 | -0.009 ± 0.03 | -0.024 ± 0.02 | 0.015 ± 0.044 | -0.013 ± 0.018 | -0.053 ± 0.05 | 0.055 ± 0.0099 | 0.108 ± 0.018 | -0.003 ± 0.011 | -0.014 ± 0.0014 | 0.006 ± 0.017 | -0.0015 ± 0.015 | -0.0155 ± 0.016 | 0.028 ± 0.028 |
| CASM3C:LDLR | -0.007 ± 0.0028 | -0.015 ± 0.0057 | 0.002 ± 0.0099 | -0.0045 ± 0.0064 | -0.005 ± 0.016 | 0.007 ± 0.0085 | -0.0105 ± 0.005 | -0.011 ± 0.017 | 0.0095 ± 0.037 | 0.0155 ± 0.028 | -0.015 | -0.0425 ± 0.018 | -0.0055 ± 0.035 | 0.009 ± 0.0057 | -0.001 ± 0.018 | 0.011 ± 0.04 | -0.007 ± 0.013 | -0.0095 ± 0.019 | 0.024 ± 0.037 |
| CASM3C:M-CSF | -0.0205 ± 0.029 | -0.015 ± 0.0042 | -0.014 ± 0.033 | -0.0095 ± 0.0078 | -0.01 ± 0.0085 | -0.0065 ± 0.0092 | 0.008 ± 0.014 | 0.0095 ± 0.018 | 0.0425 ± 0.005 | 0.0465 ± 0.0064 | 0.0285 ± 0.0035 | 0.03 ± 0.014 | 0.14 ± 0.079 | -0.011 ± 0.044 | -0.002 ± 0.0085 | 0.002 ± 0.037 | -0.0075 ± 0.013 | -0.0195 ± 0.028 | 0.0135 ± 0.044 |
| CASM3C:PAI-I | -0.0045 ± 0.0092 | 0 ± 0.0057 | 0.005 ± 0.017 | 0.0005 ± 0.005 | -0.0085 ± 0.012 | 0.0045 ± 0.0092 | -0.003 ± 0.0028 | -0.0095 ± 0.00071 | 0.0005 ± 0.011 | -0.001 ± 0.0028 | -0.0165 ± 0.0064 | 0.009 ± 0.0057 | -0.0055 ± 0.021 | -0.001 ± 0.023 | -0.0025 ± 0.015 | 0 ± 0.0099 | -0.0035 ± 0.015 | 0.017 ± 0.031 | 0.006 ± 0.0085 |
| CASM3C:Proliferation | -0.0175 ± 0.021 | -0.046 ± 0.05 | -0.026 ± 0.064 | -0.029 ± 0.023 | -0.0165 ± 0.05 | -0.037 ± 0.051 | -0.011 ± 0.078 | 0.007 ± 0.031 | -0.009 ± 0.011 | 0.017 ± 0.0057 | 0.0585 ± 0.061 | -0.006 ± 0.059 | 0.0275 ± 0.03 | -0.0095 ± 0.029 | 0.024 ± 0.033 | 0.026 ± 0.018 | -0.0005 ± 0.0021 | -0.0235 ± 0.0092 | 0.007 ± 0.0014 |
| CASM3C:SRB | -0.006 ± 0.014 | 0.0055 ± 0.0035 | -0.0035 ± 0.005 | 0.0075 ± 0.013 | 0.002 ± 0.013 | -0.005 ± 0.0042 | 0.0075 ± 0.00071 | 0.0045 ± 0.0078 | 0.014 ± 0.0042 | -0.0035 ± 0.011 | -0.005 ± 0.0085 | 0 ± 0.0028 | -0.007 ± 0.0085 | -0.004 ± 0.0028 | 0.0025 ± 0.0021 | 0.001 ± 0.0085 | -0.0005 ± 0.013 | -0.0085 ± 0.00071 | -0.0045 ± 0.0078 |
| CASM3C:Serum Amyloid A | 0.0025 ± 0.012 | 0.003 ± 0.035 | 0.032 ± 0.061 | 0.012 ± 0.014 | 0.0085 ± 0.0092 | 0.0185 ± 0.028 | -0.008 ± 0.011 | -0.0165 ± 0.005 | 0.016 ± 0.025 | -0.0545 ± 0.022 | -0.0135 ± 0.011 | 0.0365 ± 0.036 | 0.182 ± 0.028 | 0.019 ± 0.014 | 0.021 ± 0.03 | 0.017 ± 0.031 | 0.016 ± 0.014 | -0.0055 ± 0.069 | 0.002 ± 0.0014 |
| HDF3CGF:CCL2/MCP-1 | -0.0325 ± 0.032 | -0.034 ± 0.02 | -0.02 ± 0.0099 | 0.003 | -0.019 ± 0.028 | -0.0115 ± 0.005 | -0.026 ± 0.038 | -0.0505 ± 0.021 | -0.0235 ± 0.028 | -0.0105 ± 0.05 | -0.018 ± 0.035 | 0.0415 ± 0.025 | 0.112 ± 0.0099 | 0.0075 ± 0.019 | 0.0085 ± 0.021 | 0.008 ± 0.014 | -0.003 ± 0.0071 | -0.004 ± 0.0057 | 0.007 ± 0.0071 |
| HDF3CGF:CD54/ICAM-1 | -0.0045 ± 0.022 | -0.0115 ± 0.04 | -0.0215 ± 0.06 | 0.011 ± 0.027 | 0.043 ± 0.0099 | 0.055 ± 0.073 | 0.039 ± 0.023 | 0.034 ± 0.051 | 0.0005 ± 0.03 | -0.0145 ± 0.021 | -0.031 ± 0.016 | -0.037 ± 0.016 | -0.063 ± 0.0057 | -0.0085 ± 0.011 | -0.007 ± 0.011 | -0.029 ± 0.014 | -0.0065 ± 0.016 | 0.0015 ± 0.012 | 0.009 |
| HDF3CGF:CD106/VCAM-1 | 0.013 ± 0.0099 | -0.017 ± 0.0014 | -0.04 ± 0.021 | -0.0005 ± 0.012 | -0.0165 ± 0.035 | 0.01 ± 0.0099 | -0.051 ± 0.04 | -0.0065 ± 0.0064 | -0.042 ± 0.0085 | -0.104 ± 0.06 | -0.164 ± 0.042 | -0.0895 ± 0.049 | -0.0215 ± 0.0092 | 0.034 ± 0.11 | 0.034 ± 0.093 | 0.0135 ± 0.064 | 0.042 ± 0.083 | 0.0495 ± 0.08 | 0.041 ± 0.055 |
| HDF3CGF:CXCL9/MIG | -0.03 ± 0.031 | -0.03 ± 0.068 | -0.062 ± 0.05 | -0.006 ± 0.0014 | -0.0055 ± 0.015 | 0.016 ± 0.025 | -0.0115 ± 0.019 | -0.0165 ± 0.018 | -0.0005 ± 0.026 | -0.0085 ± 0.022 | -0.0565 ± 0.00071 | 0.029 ± 0.0085 | 0.049 ± 0.014 | -0.013 ± 0.048 | -0.0395 ± 0.018 | -0.046 ± 0.038 | -0.001 ± 0.038 | 0.0055 ± 0.035 | -0.035 ± 0.083 |
| HDF3CGF:Collagen I | -0.0105 ± 0.029 | 0.0175 ± 0.023 | -0.013 ± 0.028 | -0.005 ± 0.0057 | -0.015 ± 0.033 | 0.0045 ± 0.042 | 0.001 ± 0.0057 | -0.01 ± 0.0071 | 0.0135 ± 0.066 | -0.0095 ± 0.012 | -0.01 | 0.067 ± 0.011 | 0.0845 ± 0.042 | -0.031 ± 0.095 | -0.007 ± 0.086 | 0.056 ± 0.11 | -0.005 ± 0.047 | 0.005 ± 0.09 | 0.0485 ± 0.12 |
| HDF3CGF:Collagen III | -0.0355 ± 0.1 | -0.0515 ± 0.1 | -0.0555 ± 0.1 | 0.0035 ± 0.044 | 0.0225 ± 0.00071 | 0.023 ± 0.052 | 0.0055 ± 0.021 | 0.0365 ± 0.015 | -0.008 ± 0.062 | -0.031 ± 0.042 | -0.074 ± 0.025 | 0.054 ± 0.0014 | 0.0205 ± 0.052 | -0.0555 ± 0.015 | -0.0115 ± 0.019 | 0.03 ± 0.093 | 0.009 ± 0.051 | 0.0115 ± 0.064 | 0.0515 ± 0.026 |
| HDF3CGF:EGFR | -0.004 ± 0.014 | -0.004 ± 0.0028 | 0.023 ± 0.047 | -0.012 ± 0.082 | 0.0015 ± 0.054 | 0.0145 ± 0.087 | -0.082 ± 0.045 | -0.0785 ± 0.015 | 0.031 ± 0.035 | -0.009 ± 0.067 | -0.0295 ± 0.0092 | -0.001 ± 0.0014 | 0.079 ± 0.0099 | -0.0455 ± 0.022 | -0.0535 ± 0.025 | -0.0305 ± 0.029 | -0.028 ± 0.02 | -0.0305 ± 0.04 | -0.0035 ± 0.005 |
